# What was measured:
# [1] = test system: SARS-CoV-2 isolate USA-WA1/2020; assay: Virus plaque formation assay; format: cell-based
# [2] = test system: Vero-E6 cells
# Description: Cytotoxicity was measured using Promega™ CytoTox 96™ Nonradioactive Cytotoxicity Assay (cat #G1780, Promega, Madison, Wis., USA).
# Cytotoxicity was measured using the Promega™ CytoTox 96™ Nonradioactive Cytotoxicity Assay kit (cat #G1780, Promega, Madison, Wis., USA) in 50 μL reactions and 96-well format (cat #161093, Thermo Fisher Scientific, Waltham, Mass., USA) according to the manufacturer's protocol, except we used 20 μL of 10× Lysis Solution per 100 μL of sample and incubated at 37° C. for 30 minutes to generate the maximum LDH release control. The assay was measured using a BioTeK Synergy™ HT plate reader (model #7091000, BioTek, Winooski, Vt., USA) at an optical density of 490 nm (OD490). Cytotoxicity was measured for ≤60 μM Cmpd. x for all three cell lines (LLC-MK2, Vero E6, and Calu-3). LLC-MK2 cells were assessed for cytotoxicity at 5 days, whereas Vero E6 and Calu-3 cells were assessed for cytotoxicity every 24 hours from 1-5 days.
# [3] = test system: SARS-CoV-2 isolate USA-WA1/2020; assay: RT-PCR assay of viral load (viral RNA copy number in cell supernatant); format: cell-based
structure (smiles),measurement,setting,value
"COc1ccc2c3c([nH]c2c1)C(CCCC1=NCCc2c1[nH]c1cc(OC)ccc21)=NCC3 [GZ440-6, 1,3-bis(7-methoxy-4,9-dihydro-3H-pyrido[3,4-b]indol-1-yl)propane]",inhibition of plaque formation,"[1]; 2.0 μM, 5.0 μM and 10.0 μM, Vero-E6 cells, 120 h after infection",negligible inhibition
same,inhibition of plaque formation,"[1]; 20 μM and above, Student's T-Test vs. Camostat/E64d P<0.05",inhibition of plaque formation was significant
same,average cytotoxicity values,[2],not elevated above controls
same,viral numbers (RNA copy number),"[3]; 40 μM (P<0.05), FIG. 3C",clear reduction in viral numbers
same,viral load (viral RNA levels),"[3]; higher concentrations (20 and 40 μM), 120 hours after infection",decreased viral load
same,viral load (viral RNA levels / viral numbers),"[3]; lower concentrations (2, 5, 10 μM), 120 hours after infection, listed as compound of the invention",no consistent reduction of viral numbers

# — patent US11576902B2, “Inhibition of COVID-19 virus” (Ankh Life Sciences Limited, priority 2020, dated 2023)
